The text below walks through data of PubChem BioAssay (NCI).

A word on the TGI: it is the concentration giving total growth inhibition. A high value points to less potent growth arrest.

Structures are written as SMILES.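 Cultured in 96-well plates, cells were exposed to test compound for 48 hours across five concentrations. TGI: concentration producing complete growth inhibition.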 A value given as a limit tells only on which side of the number the result lay.

Test systems include NCI/ADR-RES ovarian; HT29 colon; LOX IMVI melanoma; KM12 colon; MDA-MB-231 breast; UO-31 renal; SNB-19 CNS; SF-295 CNS; SF-539 CNS; 786-0 renal.
Common to all, as to test: DTP human tumour cell line panel, 48 h

Turning to `CC1(O)OC(=O)C2=C1CCC1C2CCC2(C)C(O)CCC12` (stereo not given), the TGI in the assay with NCI/ADR-RES ovarian, in the assay with HT29 colon, with LOX IMVI melanoma, in the assay with KM12 colon, with MDA-MB-231 breast and in the assay on UO-31 renal was more than 100 µM in each case. Further, the concentration for total growth inhibition (TGI) with SNB-19 CNS, with SF-295 CNS, in the assay on SF-539 CNS and in the assay with 786-0 renal was more than 100 µM in each case.

Consider `C#CCOCC12C=CC(O1)C1C(=O)OCC12` (stereo not given), for which the concentration for total growth inhibition (TGI) in the assay on NCI/ADR-RES ovarian, with HT29 colon, with LOX IMVI melanoma, in the assay on KM12 colon, with MDA-MB-231 breast and in the assay on UO-31 renal was more than 100 µM in each case. For the same compound, the TGI in the assay with SNB-19 CNS, with SF-295 CNS, in the assay with SF-539 CNS and in the assay with 786-0 renal was more than 100 µM in each case.

For `Cc1cc(O)c(C(C)C)cc1C1(c2cc(C(C)C)c(O)cc2C)OC(=O)c2ccccc21`, the TGI in the assay with NCI/ADR-RES ovarian came to 12 µM; in the assay with HT29 colon, 5.84 µM; with LOX IMVI melanoma it was 3.53 µM; in the assay with KM12 colon, 3.33 µM; in the assay on MDA-MB-231 breast it was 4.54 µM; in the assay with UO-31 renal it was 7.04 µM. In addition, the TGI is more than 35.1 µM in the assay on SNB-19 CNS, 3.69 µM in the assay on SF-295 CNS, 3.72 µM with SF-539 CNS and 5.52 µM with 786-0 renal.

As to `COC(=O)C1=C(OC(=O)c2ccccc2)C(C(=O)OC)[C@]2(O)[C@@H](C(=O)OC)[C@H]1C[C@@H](c1ccccc1)[C@@H]2C(=O)OC` (stereo not given in full), the total growth inhibition concentration (TGI) in the assay with NCI/ADR-RES ovarian was 14.1 µM; in the assay with HT29 colon, 30.7 µM; in the assay with LOX IMVI melanoma, 26.7 µM; in the assay on KM12 colon it was more than 100 µM; in the assay on MDA-MB-231 breast, 41.4 µM; with UO-31 renal it was 10.1 µM. The TGI in the assay on SNB-19 CNS turned out to be 41.7 µM; in the assay with SF-295 CNS, 36.7 µM; in the assay on SF-539 CNS it was 14.6 µM; in the assay on 786-0 renal it was 93.8 µM.

For `CCC(c1c[nH]c2ccc(Br)cc12)c1c[nH]c2ccc(Br)cc12`, the TGI in the assay on NCI/ADR-RES ovarian amounted to 13.3 µM; in the assay on HT29 colon, 10.4 µM; with LOX IMVI melanoma, 6.66 µM; with KM12 colon it was 4.22 µM; with MDA-MB-231 breast, 25.4 µM; with UO-31 renal, 18.7 µM. Moreover, the TGI stood at 21.4 µM in the assay with SNB-19 CNS, 18.8 µM in the assay on SF-295 CNS, 28.6 µM in the assay on SF-539 CNS and 11.2 µM in the assay on 786-0 renal.

As to `COc1cc([C@@H]2c3cc(O)c(OC)cc3C=C(C(N)=O)[C@H]2C(N)=O)ccc1O`, the TGI in the assay on NCI/ADR-RES ovarian, in the assay with HT29 colon, in the assay with LOX IMVI melanoma, with KM12 colon, in the assay on MDA-MB-231 breast and in the assay on UO-31 renal was more than 100 µM each time. Moreover, the TGI in the assay on SNB-19 CNS, in the assay on SF-295 CNS, in the assay with SF-539 CNS and in the assay with 786-0 renal was more than 100 µM in each case.

As for `CC1OC(OC2C(OC(=O)[C@@H]3CC(C)(C)C[C@H]4C5=CC[C@@H]6[C@@]7(C)C[C@H](O)[C@H](OC8OC(CO)C(O)C(O)C8O)[C@@](C)(CO)[C@@H]7[C@H](O)C[C@@]6(C)[C@]5(C)CC[C@@]34C)OCC(O)C2O)C(O)C(O)C1O` (stereo not given in full), the TGI in the assay with NCI/ADR-RES ovarian, in the assay with HT29 colon, in the assay on LOX IMVI melanoma, with KM12 colon, in the assay on MDA-MB-231 breast and with UO-31 renal was more than 7.5 µM throughout. Besides, the TGI in the assay with SNB-19 CNS, with SF-295 CNS, with SF-539 CNS and in the assay on 786-0 renal was more than 7.5 µM throughout.

Regarding `OC(c1ccc(-c2ccccc2)cc1)C(F)(F)c1nc2ccccc2o1` (stereo not given), the total growth inhibition concentration (TGI) with NCI/ADR-RES ovarian was more than 100 µM; with HT29 colon, more than 100 µM; in the assay on LOX IMVI melanoma it was more than 100 µM; with KM12 colon, more than 100 µM; in the assay with MDA-MB-231 breast it was more than 96.6 µM; with UO-31 renal, more than 100 µM. Besides, the concentration for total growth inhibition (TGI) in the assay on SNB-19 CNS was more than 100 µM; in the assay on SF-295 CNS, more than 100 µM; with SF-539 CNS, more than 72.3 µM; with 786-0 renal it was 74.6 µM.

On to `O=C(O)CNC(=O)c1c2ccccc2nc2ccccc12`, for which the concentration for total growth inhibition (TGI) in the assay with NCI/ADR-RES ovarian, in the assay with HT29 colon, in the assay on LOX IMVI melanoma, in the assay on KM12 colon, in the assay with MDA-MB-231 breast and with UO-31 renal was more than 100 µM throughout. Also, the total growth inhibition concentration (TGI) in the assay with SNB-19 CNS, with SF-295 CNS, with SF-539 CNS and with 786-0 renal was more than 100 µM in each case.

Turning to `CC(C)C1=CC23CCC4C(C)(C(=O)O)CCCC4(C)C2CC1C1C(=O)N(c2ccc(C(=O)O)cc2)C(=O)C13` (stereo not given), the TGI in the assay on NCI/ADR-RES ovarian, in the assay with HT29 colon, in the assay on LOX IMVI melanoma, in the assay on KM12 colon, in the assay with MDA-MB-231 breast and with UO-31 renal was more than 100 µM throughout. The total growth inhibition concentration (TGI) in the assay with SNB-19 CNS, in the assay with SF-295 CNS, in the assay on SF-539 CNS and with 786-0 renal was more than 100 µM throughout.
